Experimental data: patent publication US20170045513A1, “METHODS OF DIAGNOSING CELIAC DISEASE USING IP-10” (ImmusanT, Inc., priority 2014, published 2017)
Non-standard residues stand in square brackets, D forms with d. pGlu = O=C1CC[C@@H](C(=O)O)N1

Legend:
Assay type in all cases: cell-based, human
gluten-reactive T cells [1] = test: Overnight IFNγ ELISpot assay with fresh PBMC; settings: for Percent of maximal response to individual gluten peptides, ELISp: after oral gluten challenge; for IFNγ ELISpot % max Mean: n = 5, blood after oral gluten challenge, individual peptides 5 μM (Peptide 2* of P14, Pepscan: 10 μg/mL (5.45 μM))
Outline: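 Read-out is IFNγ spot-forming units per well, counted automatically after overnight culture of fresh PBMC (0.4 million/well) with single peptides (duplicate) or pools (triplicate). Donors: HLA-DQ2.5+ celiac patients on gluten-free diet, bled pre- and day 6 after 3-day oral gluten challenge.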

gluten-reactive T cells [2] = test: Cytokine release assays taken together (IFNγ ELISpot, whole blood IFNγ and IP-10, in-tube IFNγ ELISA); settings: for activity relative to Peptide 14 in the cytokine release assays: blood collected after oral gluten challenge
Outline: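 Whole blood with peptides (P3 0.05-50 μg/mL; P13/P14 0.025-25 μM; […]), 24 h, 37 °C; plasma IFNγ/IP-10 by multiplex beads. Tube assay: 1 mL blood with P3 or CEF, 24 h, plasma IFNγ ELISA; elevated if >7.2 pg/mL above medium tube and SI >1.25. ELISpot overnight on fresh PBMC.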

gluten-reactive T cells [3] = test: 96-well plate whole blood cytokine release, IFNγ by MAGPIX multiplex bead assay; settings: for Percent of maximal response to individual gluten peptides, IFNg: after oral gluten challenge; for IFNγ WB MAGPIX % max Mean: n = 8, blood after oral gluten challenge, individual peptides 5 μM (Peptide 2* of P14, Pepscan: 10 μg/mL (5.45 μM))

Substance | Percent of maximal response to individual gluten peptides, ELISp (gluten-reactive T cells [1]; Subject 3, Max. 18 SFU) | Percent of maximal response to individual gluten peptides, ELISp (gluten-reactive T cells [1]; Subject 4, Max. 36 SFU) | Percent of maximal response to individual gluten peptides, ELISp (gluten-reactive T cells [1]; Subject 6, Max. 16 SFU) | Percent of maximal response to individual gluten peptides, ELISp (gluten-reactive T cells [1]; Subject 8, Max. 17 SFU) | Percent of maximal response to individual gluten peptides, ELISp (gluten-reactive T cells [1]; Subject 10, Max. 11 SFU) | IFNγ ELISpot % max Mean (gluten-reactive T cells [1]) [% max] | activity relative to Peptide 14 in the cytokine release assays (gluten-reactive T cells [2]) | Percent of maximal response to individual gluten peptides, IFNg (gluten-reactive T cells [3]; Subject 2, Max. 116 pg/mL) | Percent of maximal response to individual gluten peptides, IFNg (gluten-reactive T cells [3]; Subject 3, Max. 799 pg/mL) | Percent of maximal response to individual gluten peptides, IFNg (gluten-reactive T cells [3]; Subject 4, Max. 136 pg/mL) | Percent of maximal response to individual gluten peptides, IFNg (gluten-reactive T cells [3]; Subject 6, Max. 72 pg/mL) | Percent of maximal response to individual gluten peptides, IFNg (gluten-reactive T cells [3]; Subject 7, Max. 17 pg/mL) | Percent of maximal response to individual gluten peptides, IFNg (gluten-reactive T cells [3]; Subject 8, Max. 47 pg/mL) | Percent of maximal response to individual gluten peptides, IFNg (gluten-reactive T cells [3]; Subject 9, Max. 67 pg/mL) | Percent of maximal response to individual gluten peptides, IFNg (gluten-reactive T cells [3]; Subject 10, Max. 229 pg/mL) | IFNγ WB MAGPIX % max Mean (gluten-reactive T cells [3]) [% max] | cytokine release / immunogenicity of individual peptide (gluten-reactive T cells [2]; HLA-DQ2.5+ celiac disease subjects after gluten challenge)
(pE)QPFPQPELPYPYPQ-amide ([pGlu]QPFPQPELPYPYPQ-NH2; SMILES CC(C)C[C@H](NC(=O)[C@H](CCC(=O)O)NC(=O)[C@@H]1CCCN1C(=O)[C@H](CCC(N)=O)NC(=O)[C@@H]1CCCN1C(=O)[C@H](Cc1ccccc1)NC(=O)[C@@H]1CCCN1C(=O)[C@H](CCC(N)=O)NC(=O)[C@@H]1CCC(=O)N1)C(=O)N1CCC[C@H]1C(=O)N[C@@H](Cc1ccc(O)cc1)C(=O)N1CCC[C@H]1C(=O)N[C@@H](Cc1ccc(O)cc1)C(=O)N1CCC[C@H]1C(=O)N[C@@H](CCC(N)=O)C(N)=O) [Peptide 16] | 22 % of max | 31 % of max | 19 % of max | 24 % of max | 27 % of max | 24 | no more than two-thirds as active as Peptide 14 | 65 % of max | 13 % of max | 16 % of max | 10 % of max | 100 % of max | 0 % of max | 39 % of max | 2 % of max | 31 | 
(pE)QPFPQPEQPFPLQPEQP-amide ([pGlu]QPFPQPEQPFPLQPEQP-NH2; SMILES CC(C)C[C@H](NC(=O)[C@@H]1CCCN1C(=O)[C@H](Cc1ccccc1)NC(=O)[C@@H]1CCCN1C(=O)[C@H](CCC(N)=O)NC(=O)[C@H](CCC(=O)O)NC(=O)[C@@H]1CCCN1C(=O)[C@H](CCC(N)=O)NC(=O)[C@@H]1CCCN1C(=O)[C@H](Cc1ccccc1)NC(=O)[C@@H]1CCCN1C(=O)[C@H](CCC(N)=O)NC(=O)[C@@H]1CCC(=O)N1)C(=O)N[C@@H](CCC(N)=O)C(=O)N1CCC[C@H]1C(=O)N[C@@H](CCC(=O)O)C(=O)N[C@@H](CCC(N)=O)C(=O)N1CCC[C@H]1C(N)=O) [Peptide 6] | 11 % of max | 56 % of max | 31 % of max | 0 % of max | 9 % of max | 21 | approximately one-half to one-fifth as active as Peptide 14 | 58 % of max | 10 % of max | 54 % of max | 4 % of max | 2 % of max | 6 % of max | 69 % of max | 20 % of max | 28 | 
(pE)QPFPQPEQPFSQQ-amide ([pGlu]QPFPQPEQPFSQQ-NH2; SMILES NC(=O)CC[C@H](NC(=O)[C@H](CCC(N)=O)NC(=O)[C@H](CO)NC(=O)[C@H](Cc1ccccc1)NC(=O)[C@@H]1CCCN1C(=O)[C@H](CCC(N)=O)NC(=O)[C@H](CCC(=O)O)NC(=O)[C@@H]1CCCN1C(=O)[C@H](CCC(N)=O)NC(=O)[C@@H]1CCCN1C(=O)[C@H](Cc1ccccc1)NC(=O)[C@@H]1CCCN1C(=O)[C@H](CCC(N)=O)NC(=O)[C@@H]1CCC(=O)N1)C(N)=O) [Peptide 7] | 0 % of max | 11 % of max | 6 % of max | 0 % of max | 9 % of max | 5 |  | 60 % of max | 2 % of max | 8 % of max | 0 % of max | 0 % of max | 0 % of max | 0 % of max | 1 % of max | 9 | weak or absent
